Experimental data taken from article PMC3445454, “Broad and Cross-Clade CD4^+ T-Cell Responses Elicited by a DNA Vaccine Encoding Highly Conserved and Promiscuous HIV-1 M-Group Consensus Peptides” (PLoS ONE, 2012).
Changes are numbered by the printed parent chain. Like-named read-outs stand apart in the source and are kept apart here.

Key:
Experiment in all cases: biochemical
[1] = target: HLA-DP DPA1*03:01/DPB1*04:02 (Homo sapiens, UniProt P04440+P20036, A42M/A65V/A84D/A85E/L207M/L97S)
[2] = target: T1, HLA-DP DPA1*01:03/DPB1*03:01 (Homo sapiens, UniProt P04440+P20036, A65V/A84D/A85E/E86D/F38Y/G113D/G114E/G40L/I94L/L37V/M105V/M116V/P115A/R125K/T199I); format: binding; conditions: read-out: Binding capacity/IC50 (nM) DPA1*01:03 DPB1*03:01
T1 sequence (P20036 29-260): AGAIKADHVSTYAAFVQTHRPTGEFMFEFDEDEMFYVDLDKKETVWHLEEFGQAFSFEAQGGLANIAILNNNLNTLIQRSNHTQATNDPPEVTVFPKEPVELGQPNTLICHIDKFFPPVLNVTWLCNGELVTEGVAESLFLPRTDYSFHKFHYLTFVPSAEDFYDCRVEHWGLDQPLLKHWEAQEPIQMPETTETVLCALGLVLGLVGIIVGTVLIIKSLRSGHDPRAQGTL
T1 sequence (P04440 30-258 L37V/F38Y/G40L/A65V/A84D/A85E/E86D/I94L/M105V/G113D/G114E/P115A/M116V/R125K/T199I): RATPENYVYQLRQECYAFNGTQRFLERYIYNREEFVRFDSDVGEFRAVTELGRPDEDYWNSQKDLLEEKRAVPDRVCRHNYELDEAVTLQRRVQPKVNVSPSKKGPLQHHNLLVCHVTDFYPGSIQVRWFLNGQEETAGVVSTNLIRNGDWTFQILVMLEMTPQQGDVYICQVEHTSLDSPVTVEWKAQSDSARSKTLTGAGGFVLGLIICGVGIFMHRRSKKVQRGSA

[3] = target: T2, HLA-DP DPA1*02:01/DPB1*05:01 (Homo sapiens, UniProt P04440+P20036, A65V/A84E/F191V/F64L/G113D/G114E/K142R/L158P/M116V/M62Q/P115A/Q81R/R125K/T114A/T199I/T259P/V234M); format: binding
T2 sequence (P20036 29-260 A42M/M62Q/Q81R/T114A/K142R/L158P/F191V/T259P): T1 sequence (P20036 29-260) with A14M, M34Q, Q53R, T86A, K114R, L130P, F163V, T231P
T2 sequence (P04440 30-258 F64L/A65V/A84E/G113D/G114E/P115A/M116V/R125K/T199I/V234M): T1 sequence (P04440 30-258 L37V/F38Y/G40L/A65V/A84D/A85E/E86D/I94L/M105V/G113D/G114E/P115A/M116V/R125K/T199I) with V8L, Y9F, L11G, F35L, D55E, E56A, D57E, L65I, V76M, V205M

HLA-DR DRB3*01:01 = HLA-DR DRB3*01:01 (Homo sapiens, UniProt P01903+P79483); format: binding
[4] = target: T3, HLA-DP DPA1*02:01/DPB1*14:01 (Homo sapiens, UniProt P04440+P20036, A65V/A84D/A85E/E86D/F191V/F38H/G113D/G114E/G40L/I94L/K142R/L158P/L37V/M105V/M116V/M62Q/P115A/Q81R/R125K/T114A/T199I/T259P); format: binding; conditions: read-out: Binding capacity/IC50 (nM) DPA1*02:01 DPB1*14:01
T3 sequence (P20036 29-260 A42M/M62Q/Q81R/T114A/K142R/L158P/F191V/T259P): T1 sequence (P20036 29-260) with A14M, M34Q, Q53R, T86A, K114R, L130P, F163V, T231P
T3 sequence (P04440 30-258 L37V/F38H/G40L/A65V/A84D/A85E/E86D/I94L/M105V/G113D/G114E/P115A/M116V/R125K/T199I/R223Q): T1 sequence (P04440 30-258 L37V/F38Y/G40L/A65V/A84D/A85E/E86D/I94L/M105V/G113D/G114E/P115A/M116V/R125K/T199I) with Y9H, R194Q

HLA-DR DRB1*16:02 = HLA-DR DRB1*16:02 (Homo sapiens, UniProt P01903+P01911, A100R/F76Y/I96L/Q99D/V115G); format: binding
HLA-DR DRB3*02:02 = HLA-DR DRB3*02:02 (Homo sapiens, UniProt P01903+P79483, A212P/D57E/F66Y/L67A/R103Q/R218S/R40L/S89Y/T80R/V86D/Y55F/Y59H); format: binding
HLA-DR DRB5*01:01 = HLA-DR DRB5*01:01 (Homo sapiens, UniProt P01903+Q30154); format: binding; conditions: read-out: Binding capacity/IC50 (nM) DRB5*01:01
HLA-DR DRB4*01:01 = HLA-DR DRB4*01:01 (Homo sapiens, UniProt P01903+P13762, G164S); format: binding; conditions: read-out: Binding capacity/IC50 (nM) DRB4*01:01
HLA-DR DRB1*15:01 = HLA-DR DRB1*15:01 (Homo sapiens, UniProt P01903+P01911); format: binding
[5] = target: HLA-DP DPA1*02:01/DPB1*01:01 (Homo sapiens, UniProt P04440+P20036, F191V/F38Y/F64Y/G113D/G114E/K142R/L158P/L37V/M105V/M116V/M62Q/P115A/Q81R/R125K/R223Q/T114A/T199I/T259P)
[6] = target: T4, HLA-DP DPA1*01:03/DPB1*04:01 (Homo sapiens, UniProt P04440+P20036); format: binding
T4 sequence (P20036 29-260): T1 sequence (P20036 29-260)
T4 sequence (P04440 30-258): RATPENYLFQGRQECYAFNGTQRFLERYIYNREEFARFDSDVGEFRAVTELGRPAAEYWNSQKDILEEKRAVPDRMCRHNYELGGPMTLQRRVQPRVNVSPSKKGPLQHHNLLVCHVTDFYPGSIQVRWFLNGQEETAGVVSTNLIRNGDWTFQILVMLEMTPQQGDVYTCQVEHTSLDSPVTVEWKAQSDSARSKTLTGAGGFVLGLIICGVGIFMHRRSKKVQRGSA

[7] = read-out: Binding capacity/IC50 (nM) DPA1*02:01 DPB1*05:01
[8] = read-out: Binding capacity/IC50 (nM) DRB3*01:01
[9] = read-out: Binding capacity/IC50 (nM) DRB3*02:02
[10] = read-out: Binding capacity/IC50 (nM) DRB1*15:01
[11] = read-out: Binding capacity/IC50 (nM) DPA1*01:03 DPB1*04:01
[12] = read-out: Binding capacity/IC50 (nM) DRB1*16:02

HLA-DP DPA1*02:01/DPB1*01:01, sequence (P20036 29-260 A42M/M62Q/Q81R/T114A/K142R/L158P/F191V/T259P, other chains not shown): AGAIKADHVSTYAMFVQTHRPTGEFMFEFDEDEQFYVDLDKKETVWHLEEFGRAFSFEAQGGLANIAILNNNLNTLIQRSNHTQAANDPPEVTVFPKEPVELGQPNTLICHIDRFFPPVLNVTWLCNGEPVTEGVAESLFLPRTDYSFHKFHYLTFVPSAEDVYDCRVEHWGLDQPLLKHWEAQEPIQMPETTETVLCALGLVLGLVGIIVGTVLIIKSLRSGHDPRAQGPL

Compound `CC[C@H](C)[C@H](NC(=O)[C@H](C)NC(=O)[C@H](CCCCN)NC(=O)[C@H](CCCCN)NC(=O)CNC(=O)[C@H](CS)NC(=O)[C@@H](NC(=O)[C@H](CCC(=O)O)NC(=O)[C@@H](NC(=O)[C@H](CC(C)C)NC(=O)[C@@H](NC(=O)[C@H](CCC(N)=O)NC(=O)[C@H](CC(=O)O)NC(=O)[C@H](Cc1ccc(O)cc1)NC(=O)[C@H](CCC(N)=O)NC(=O)[C@H](CCCNC(=N)N)NC(=O)[C@@H](NC(=O)[C@H](CCCCN)NC(=O)[C@@H](NC(=O)[C@@H](N)Cc1ccccc1)[C@@H](C)CC)C(C)C)[C@@H](C)CC)[C@@H](C)CC)[C@@H](C)CC)C(=O)NCC(=O)N[C@H](C(=O)N[C@H](C(N)=O)C(C)C)[C@@H](C)O` [protease(53-75)] has an IC50 [1] of 342 nM, an IC50 [2] of 9.4 nM and an IC50 [3, 7] of 53 nM. The IC50 (HLA-DR DRB3*01:01; [8]) was 545 nM, the IC50 [4] was 1250 nM and the IC50 (HLA-DR DRB1*16:02) was 388 nM. The IC50 (HLA-DR DRB3*02:02; [9]) was 9690 nM, the IC50 (HLA-DR DRB5*01:01) was 93 nM and the IC50 (HLA-DR DRB4*01:01) was 302 nM. It also gave an IC50 (HLA-DR DRB1*15:01; [10]) of 111 nM, an IC50 [5] of 112 nM and an IC50 [6, 11] of 452 nM.
`CC[C@H](C)[C@H](NC(=O)[C@@H](NC(=O)[C@H](CCCCN)NC(=O)[C@@H](NC(=O)[C@@H]1CCCN1C(=O)[C@H](Cc1c[nH]c2ccccc12)NC(=O)[C@H](CCCNC(=N)N)NC(=O)CNC(=O)[C@H](C)NC(=O)[C@H](CC(C)C)NC(=O)[C@H](CCCCN)NC(=O)[C@H](CC(C)C)NC(=O)[C@@H](NC(=O)[C@H](Cc1ccccc1)NC(=O)[C@H](Cc1ccc(O)cc1)NC(=O)[C@H](C)NC(=O)[C@@H](NC(=O)[C@@H](N)CCC(=O)O)[C@@H](C)O)[C@@H](C)CC)C(C)C)C(C)C)C(N)=O` [integrase(96-113)] gave an IC50 [1] of 141 nM, an IC50 [2] of 1020 nM and an IC50 [3] of 621 nM. It also gave an IC50 (HLA-DR DRB3*01:01; [8]) of 583 nM, an IC50 [4] of 12800 nM and an IC50 (HLA-DR DRB1*16:02; [12]) of 106 nM. For the same compound, the IC50 (HLA-DR DRB3*02:02; [9]) was 7470 nM, the IC50 (HLA-DR DRB5*01:01) was 4.4 nM and the IC50 (HLA-DR DRB4*01:01) was 3080 nM. The IC50 (HLA-DR DRB1*15:01; [10]) was 284 nM, the IC50 [5] was 792 nM and the IC50 [6, 11] was 232 nM.
With `CC[C@H](C)[C@H](NC(=O)[C@H](CCCCN)NC(=O)[C@@H](NC(=O)[C@@H](NC(=O)[C@@H](N)CCC(N)=O)[C@@H](C)CC)[C@@H](C)O)C(=O)N[C@@H](CCC(N)=O)C(=O)N[C@@H](CC(N)=O)C(=O)N[C@@H](Cc1ccccc1)C(=O)N[C@@H](CCCNC(=N)N)C(=O)N[C@H](C(=O)N[C@@H](Cc1ccc(O)cc1)C(=O)N[C@@H](Cc1ccc(O)cc1)C(=O)N[C@@H](CCCNC(=N)N)C(=O)N[C@@H](CC(=O)O)C(=O)N[C@@H](CO)C(=O)N[C@@H](CCCNC(=N)N)C(=O)N[C@@H](CC(=O)O)C(=O)N1CCC[C@H]1C(=O)N[C@H](C(=O)N[C@@H](Cc1c[nH]c2ccccc12)C(N)=O)[C@@H](C)CC)C(C)C` [integrase(216-235)] the IC50 [1] was 89 nM, the IC50 [2] was 83 nM and the IC50 [3, 7] was 7.6 nM. It also gave an IC50 (HLA-DR DRB3*01:01) of 39 nM, an IC50 [4] of 145 nM and an IC50 (HLA-DR DRB1*16:02; [12]) of 7.1 nM. It also gave an IC50 (HLA-DR DRB3*02:02) of 414 nM, an IC50 (HLA-DR DRB5*01:01) of 9.5 nM and an IC50 (HLA-DR DRB4*01:01) of 2080 nM. It also gave an IC50 (HLA-DR DRB1*15:01) of 5.3 nM, an IC50 [5] of 400 nM and an IC50 [6] of 1070 nM.
